Several values for one entry are separate records, joined by “and”; a condition that tells them apart may be missing. Equal entries are not always repeated.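 Protocol summary: plate cells (96-well), add compound at 5 concentrations, incubate 48 h, interpolate endpoints linearly. GI50 marks 50% less growth. TGI: concentration producing complete growth inhibition.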
Tests used:
Assay in all cases: inhibition of tumour cell growth, NCI panel, 48 h
[1] = tested on: OVCAR-8 ovarian
[2] = tested on: HCC-2998 colon
[3] = tested on: BT-549 breast
[4] = tested on: MDA-MB-435
[5] = tested on: HT29 colon
[6] = tested on: COLO 205 colon
[7] = tested on: MDA-MB-231 breast
[8] = tested on: 786-0 renal
[9] = tested on: U251 CNS
[10] = tested on: SK-MEL-2 melanoma

SMILES | GI50 [1] | TGI [1] | GI50 [2] | TGI [2] | GI50 [3] | TGI [3] | GI50 [4] | TGI [4] | GI50 [5] | TGI [5] | GI50 [6] | TGI [6] | GI50 [7] | TGI [7] | GI50 [8] | TGI [8] | GI50 [9] | TGI [9] | TGI [10] | GI50 [10]
Cc1cc(C)n(C(=O)c2nn(-c3ccc(Cl)cc3)cc2O)n1 | 5960 nM | > 100 µM | 15100 nM | > 100 µM | 2190 nM | 26.3 µM | 3940 nM | > 100 µM | 32900 nM | > 100 µM | 18500 nM | 48.1 µM | 8800 nM | > 100 µM | 9.64 µM | > 100 µM | 2680 nM | > 100 µM | – | –
CC(O)(CNS(=O)(=O)c1ccccc1)c1ccccc1 (stereo not drawn) | – | > 100 µM | – | – | – | > 100 µM | – | > 100 µM | – | > 100 µM | – | > 100 µM | – | > 100 µM | – | > 100 µM | – | > 100 µM | > 100 µM | –
Cc1cccc(C)c1NC(=O)CCC(=O)NC(N)=S | – | > 100 µM | – | > 100 µM | – | – | – | – | – | > 100 µM | – | > 100 µM | – | – | – | > 100 µM | – | > 100 µM | – | –
COc1cc2c([C@@H](OC(=O)c3ccccc3)c3ccc4c(c3)OCO4)nccc2c(OC)c1OC | – | > 100 µM | – | > 100 µM | – | – | – | – | – | > 100 µM | – | > 100 µM | – | – | – | > 100 µM | – | > 100 µM | – | –
Cc1nc2cc(Nc3nc(Nc4ccc(F)cc4)nc(N4CCN(C)CC4)n3)ccc2n1Cc1ccccc1 | 2020 nM | 5.49 µM | – | – | 1730 nM | 3.44 µM | 1870 nM | 3.56 µM | 1660 nM | 3.28 µM | 1940 nM | 3.62 µM | 1690 nM | 3.36 µM | 1.54 µM | 3.32 µM | 1350 nM | 2.64 µM | 3.58 µM | 1.97 µM
O=C1c2ccn(CCCCN3CCCCC3)c2C(=O)c2c1c(O)c1ccccc1c2O | 3520 nM | > 100 µM | 2950 nM | 9.98 µM | 17700 nM | 38.3 µM | 2190 nM | 5.27 µM | 4140 nM | > 100 µM | 5800 nM | > 52.2 µM | – | – | 5.28 µM | – | 6160 nM | – | > 100 µM | > 100 µM
COc1cc(Cl)c2c3c(c(C(=O)c4ccccc4)oc13)CCC2 | – | > 100 µM | – | > 100 µM | – | – | – | – | – | > 100 µM | – | > 100 µM | – | – | – | > 100 µM | – | > 100 µM | – | –
CCOC(=O)N[C@H]1CCc2c(Br)c(OC)c(OC)c(OC)c2-c2ccc(SC)c(=O)cc21 | 23.4 nM | > 56.4 µM | < 15.5 nM | 1.41 µM | 11.5 nM | 8.97 µM | < 10 nM | – | < 10 nM | > 34.5 µM | < 10 nM | 0.0161 µM | < 10 nM | 5.17 µM | 0.0318 µM | 25.1 µM | < 10 nM | 14.1 µM | – | –
CCCCCC(O)(CCCCC)CCCCCCCCC1=C(O)c2[nH]c(=O)ccc2C(=O)C1=O | – | 23.1 µM | – | 27.8 µM | – | – | – | – | – | 30.5 µM | – | 31.9 µM | – | – | – | 20.8 µM | – | 16.7 µM | 13.9 µM | –
CC1CCP(=O)(c2ccccc2)CC1 (stereo not drawn) | – | > 100 µM | – | > 100 µM | – | – | – | – | – | > 100 µM | – | > 100 µM | – | – | – | > 100 µM | – | > 100 µM | > 100 µM | –
CCCCCCCCCCCC(O)=C1C(=O)CC(O)CC1=O (stereo not drawn) | – | > 100 µM | – | > 100 µM | – | – | – | – | – | > 100 µM | – | > 100 µM | – | – | – | > 100 µM | – | > 100 µM | > 100 µM | –
O=S(=O)(O)/C(=C\c1ccccc1)c1ccccc1 (tested in a mixture with another compound) | – | > 100 µM | – | – | – | > 100 µM | – | > 100 µM | – | > 100 µM | – | > 100 µM | – | > 100 µM | – | > 100 µM | – | > 100 µM | > 100 µM | –
CCCCN(CCCC)C(=O)C(=O)C(C)C(=O)CC (stereo not drawn) | – | > 100 µM | – | > 100 µM | – | – | – | – | – | > 100 µM | – | > 100 µM | – | – | – | > 100 µM | – | > 100 µM | > 100 µM | –
Cc1cc(C)cc(Nc2ccc([N+](=O)[O-])c(NCCN3CCOCC3)n2)c1 | 6 nM and 36.8 nM | > 100 µM | 4.35 nM and 28.7 nM | > 100 µM | – | > 100 µM | – | 0.0115 µM | 2.19 nM and 18.8 nM | > 100 µM | 2.3 nM | 0.00795 µM | – | – | – | 18.8 µM | – | > 100 µM | > 100 µM | –
O=C(O)c1cc(Cc2ccc(O)c(C(=O)O)c2)ccc1O (tested in a mixture with another compound) | 2410 nM | 6.26 µM | 1900 nM | 3.73 µM | 3130 nM | 16.6 µM | 4200 nM | 16 µM | 2980 nM | 10.4 µM | 1570 nM | 3.41 µM | 3250 nM | 12.2 µM | 9.64 µM | 25.2 µM | 9440 nM | 27.7 µM | – | –
Cc1[nH]nc2c1C(=O)C=C(N(CCO)c1ccccc1)C2=O | – | > 100 µM | – | > 100 µM | – | – | – | – | – | > 100 µM | – | > 100 µM | – | – | – | > 100 µM | – | > 100 µM | – | –
COc1ccc(C(=O)C(C(=O)C(=O)Nc2nccs2)c2ccc(OC)cc2)cc1 (stereo not drawn) | – | > 100 µM | – | – | – | – | – | – | – | > 100 µM | – | > 100 µM | – | – | – | > 100 µM | – | > 100 µM | > 100 µM | –
c1cc(-c2cn[nH]c2)cc(-c2cn[nH]c2)c1 | – | > 100 µM | – | > 100 µM | – | – | – | – | – | – | – | > 100 µM | – | – | – | > 100 µM | – | > 100 µM | > 100 µM | –
Nc1ccc2ccc(NS(=O)(=O)N3CCCCC3)cc2c1 | 1630 nM | > 100 µM | 707 nM | > 24.8 µM | 690 nM | > 84.3 µM | – | – | 400 nM | > 100 µM | 369 nM | 1.65 µM | 728 nM | > 33.7 µM | 5.32 µM | > 100 µM | 392 nM | > 42 µM | > 100 µM | –
O=[N+]([O-])[O-].O=[N+]([O-])[O-].[Au].[Au].c1ccc([P-]c2ccccc2)cc1.c1ccc([P-]c2ccccc2)cc1 | 35300 nM | > 100 µM | 71800 nM | > 100 µM | – | – | – | – | 71300 nM | > 100 µM | 28000 nM | > 100 µM | – | – | 19.2 µM | 58.7 µM | 36600 nM | > 100 µM | 58.1 µM | 31.1 µM
